How the values were obtained:
human GPR 119 receptor = biological target: T1, human GPR 119 receptor (Homo sapiens, UniProt Q8TDV5); experiment: cAMP assay in stable cell line expressing recombinant human GPR 119 receptor; format: cell-based; settings: intracellular cAMP, recombinant human GPR 119 cell line
T1 construct: expressed in transfected cells
T1 sequence (Q8TDV5 1-335): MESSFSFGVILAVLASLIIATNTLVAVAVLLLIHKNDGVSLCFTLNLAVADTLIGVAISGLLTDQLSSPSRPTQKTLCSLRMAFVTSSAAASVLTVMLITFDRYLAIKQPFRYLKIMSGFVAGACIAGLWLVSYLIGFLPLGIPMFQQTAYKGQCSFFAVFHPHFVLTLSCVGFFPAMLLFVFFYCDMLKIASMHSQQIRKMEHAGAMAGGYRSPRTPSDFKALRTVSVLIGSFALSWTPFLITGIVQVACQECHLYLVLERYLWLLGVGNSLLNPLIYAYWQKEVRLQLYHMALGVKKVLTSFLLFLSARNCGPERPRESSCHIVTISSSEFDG
Text: A stable cell line expressing recombinant human GPR 119 receptor was established and used to investigate the efficacy of the compounds of the invention based on the intracellular levels of cyclic AMP (cAMP) using commercially available cAMP kits. Compounds of the invention produced a concentration dependent increase in cAMP level and EC50 values of representative compounds were provided in table 1 and table 2 respectively.

Sprague Dawley rats = experiment: Feed intake in Sprague Dawley rats; format: in vivo, rat; settings: 25 mg/kg i.p., cumulative feed intake vs vehicle control
Text: In Vivo Efficacy Studies: Feed Intake in Sprague Dawley Rats:
Sprague Dawley rats of 6-8 week age were be used for this experiment they were be kept for acclimatization in reversed light/dark cycle for 15 days. Animals will have free access to a standard chow diet and water during acclimatization period. After 15 days reversed light/dark cycle acclimatization animals were trained for fasting induced feed intake for 5 days till they show consistent feed intake. Grouping was done based on the monitored feed intake the training days. On treatment day each group of animals were dosed with test compound or vehicle by appropriate routes of administration (orally or intraperitoneally). Exactly 30 min. after treatment, measured amount of standard chow diet was provided and recorded as 0-min feed offered. Then subsequently 2, 4, 6 and 24 hour after 0-min, feed intake was measured and the cumulative feed intakes were calculated. The change in cumulative feed intake as compare to vehicle treated control at each time point was calculated for test compound and results were provided in table 2

C57/BL6 mice = experiment: Oral glucose tolerance test (OGTT) in C57/BL6 mice; format: in vivo, mouse; settings: 30 mg/kg oral single dose; glucose load 3 gm/kg; serum glucose AUC
Procedure: Oral Glucose Tolerance Tests (OGTT) in C57/BL6 Mice:
C57/BL6 mice of 6-8 week age were used for this experiment. Animals were grouped based on non-fasting serum glucose levels and kept on fasting for overnight (day before OGTT). On the experiment day, each animal received a single dose of vehicle/test compounds (30 mg/kg) were administered orally, 30 min post dosing animals were bled for basal glucose level estimation and at same time glucose load (3 gm/kg) will be administered per orally. Blood was collected at time points corresponding to 20, 40, 60 and 120 min after glucose load administration. Serum was separated for determination of glucose levels and change in area under curve for glucose was calculated and provided in table 3 as % reduction in AUC.

Row | SMILES | % activity at 1 μM (human GPR 119 receptor) | EC50 (human GPR 119 receptor) | % reduction in food in take 2 hour (Sprague Dawley rats) | % reduction in food in take 4 hour (Sprague Dawley rats) | % reduction in food in take 6 hour (Sprague Dawley rats) | % reduction in food in take 24 hour (Sprague Dawley rats) | % reduction in AUC at 30 mg/kg (C57/BL6 mice)
1 | CC(=NOc1ncnc(N2CCC(c3nc(C(C)C)no3)CC2)c1C)c1ccc(S(C)(=O)=O)cc1F [Example 6, 1-(2-fluoro-4-(methylsulfonyl)phenyl)ethanone O-6-(4-(3-isopropyl-1,2,4-oxadiazol-5-yl)piperidin-1-yl)-5-methylpyrimidin-4-yl oxime] | 49.55% |  | 57% | 52% | 33.3% | 15.1% | 20%
2 | COc1ccc(C(C)=NOc2ncnc(N3CCC(c4nc(C(C)C)no4)CC3)c2[N+](=O)[O-])cc1 [Example 7, 1-(4-methoxyphenyl)ethanone O-6-(4-(3-isopropyl-1,2,4-oxadiazol-5-yl)piperidin-1-yl)-5-nitropyrimidin-4-yl oxime] | 88.99% |  | 53.5% | 42% | 36% | 12.9% | 
3 | CC(=NOc1ncnc(N2CCC(c3nc(C(C)C)no3)CC2)c1C)c1ccc(F)cc1 [Example 8, 1-(4-fluorophenyl)ethanone O-6-(4-(3-isopropyl-1,2,4-oxadiazol-5-yl)piperidin-1-yl)-5-methylpyrimidin-4-yl oxime] | 64.11% |  | 32% | 17% | 12% | 4% | 
4 | CC(=NOc1ncnc(N2CCC(c3nc(C(C)C)no3)CC2)c1[N+](=O)[O-])c1ccc(F)cc1 [Example 9, 1-(4-fluorophenyl)ethanone O-6-(4-(3-isopropyl-1,2,4-oxadiazol-5-yl)piperidin-1-yl)-5-nitropyrimidin-4-yl oxime] | 104.77% | 746 nM | 41% | 31% | 23% | 12% | 
5 | CC(=NOc1ncnc(N2CCC(c3nc(C(C)C)no3)CC2)c1[N+](=O)[O-])c1cccnc1 [Example 10, 1-(pyridin-3-yl)ethanone O-6-(4-(3-isopropyl-1,2,4-oxadiazol-5-yl)piperidin-1-yl)-5-nitropyrimidin-4-yl oxime] | 31.37% |  | 38% | 31% | 25.4% | 10% | 
6 | CC(=NOc1ncnc(N2CCC(c3nc(C(C)C)no3)CC2)c1[N+](=O)[O-])c1ccc(S(C)(=O)=O)cc1 [Example 11, 1-(4-(methylsulfonyl)phenyl)ethanone O-6-(4-(3-isopropyl-1,2,4-oxadiazol-5-yl)piperidin-1-yl)-5-nitropyrimidin-4-yl oxime] | 103.98% |  | 76.2% | 43.1% | 36% | 17% | 
7 | CC(=NOc1ncnc(N2CCC(c3nc(C(C)C)no3)CC2)c1[N+](=O)[O-])c1ccc(S(C)(=O)=O)cc1F [Example 14, 1-(2-fluoro-4-(methylsulfonyl)phenyl)ethanone O-6-(4-(3-isopropyl-1,2,4-oxadiazol-5-yl)piperidin-1-yl)-5-nitropyrimidin-4-yl oxime] | 89.97% |  | 53% | 48% | 37% | 16% | 20%

Continued, in another order:

Row | % activity at 1 μM (human GPR 119 receptor) | EC50 (human GPR 119 receptor) | SMILES | % reduction in food in take 2 hour (Sprague Dawley rats) | % reduction in food in take 4 hour (Sprague Dawley rats) | % reduction in food in take 6 hour (Sprague Dawley rats) | % reduction in food in take 24 hour (Sprague Dawley rats) | % reduction in AUC at 30 mg/kg (C57/BL6 mice)
8 | 79.21% |  | CC(=NOc1ncnc(N2CCC(c3nc(C(C)C)no3)CC2)c1C)c1ccc(C(F)(F)F)cc1 [Example 15, 1-(4-(trifluoromethyl)phenyl)ethanone O-6-(4-(3-isopropyl-1,2,4-oxadiazol-5-yl)piperidin-1-yl)-5-methylpyrimidin-4-yl oxime] | 41% | 27% | 24% | 11% | 23.4%
9 | 78.54% |  | CC(=NOc1ncnc(N2CCC(c3nc(C(C)C)no3)CC2)c1C)c1ccc(OC(F)(F)F)cc1 [Example 16, 1-(4-(trifluoromethoxy)phenyl)ethanone O-6-(4-(3-isopropyl-1,2,4-oxadiazol-5-yl)piperidin-1-yl)-5-methylpyrimidin-4-yl oxime] | 43% | 25% | 16% | 4.5% | 
10 | 18.5% |  | CC(=NOc1ncnc(N2CCC(c3nc(C(C)C)no3)CC2)c1C)c1ccc2ccccc2c1 [Example 22, 1-(naphthalen-2-yl)ethanone O-6-(4-(3-isopropyl-1,2,4-oxadiazol-5-yl)piperidin-1-yl)-5-methylpyrimidin-4-yl oxime] | 30% | 43% | 44% | 14% | 
11 | 17.7% |  | CC(=NOc1ncnc(N2CCC(c3nc(C(C)C)no3)CC2)c1[N+](=O)[O-])c1ccc2ccccc2c1 [Example 23, 1-(naphthalen-2-yl)ethanone O-6-(4-(3-isopropyl-1,2,4-oxadiazol-5-yl)piperidin-1-yl)-5-nitropyrimidin-4-yl oxime] | 38% | 26% | 26% | 4% | 

From patent publication US8742117B2, “Oxime derivatives” (Cadila Healthcare Limited, priority 2008, dated 2014)
